In paper PMC9820167, “Design and Synthesis of Conformationally Flexible Scaffold as Bitopic Ligands for Potent D3-Selective Antagonists” (International Journal of Molecular Sciences, 2022):

Columns and labels:
Test in all cases: PDSP binding screen
Adrenergic alpha1B = biological target: T1, Adrenergic alpha1B (Homo sapiens, UniProt P35368); conditions: for inhibition at 10 µM: read-out: Ki (nM) or % inhibition at 10 µM: alpha1B
T1 sequence (P35368 1-520): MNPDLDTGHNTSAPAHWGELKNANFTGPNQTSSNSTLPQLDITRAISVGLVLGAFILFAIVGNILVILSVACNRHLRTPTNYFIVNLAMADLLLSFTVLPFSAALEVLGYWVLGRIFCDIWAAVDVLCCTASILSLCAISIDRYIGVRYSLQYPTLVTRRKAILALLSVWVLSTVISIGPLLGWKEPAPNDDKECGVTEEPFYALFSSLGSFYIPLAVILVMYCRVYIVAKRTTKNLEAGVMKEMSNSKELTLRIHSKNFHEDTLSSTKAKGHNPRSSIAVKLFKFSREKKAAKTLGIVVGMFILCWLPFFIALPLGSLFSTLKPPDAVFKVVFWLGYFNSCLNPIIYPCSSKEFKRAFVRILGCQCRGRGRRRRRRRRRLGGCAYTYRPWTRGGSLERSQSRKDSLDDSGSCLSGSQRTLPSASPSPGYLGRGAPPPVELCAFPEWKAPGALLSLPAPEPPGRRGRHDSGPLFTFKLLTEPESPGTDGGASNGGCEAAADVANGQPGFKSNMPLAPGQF

Adrenergic beta3 = Adrenergic beta3 (Homo sapiens, UniProt P13945); conditions: for inhibition at 10 µM: read-out: Ki (nM) or % inhibition at 10 µM: beta3
Adrenergic beta2 = Adrenergic beta2 (Homo sapiens, UniProt P07550); conditions: for inhibition at 10 µM: read-out: Ki (nM) or % inhibition at 10 µM: beta2
[1] = biological target: Benzodiazepine receptor (PBR) (Rattus norvegicus, UniProt P16257); conditions: for Ki (nM) or % inhibition at 10 µM: Benzodiazepine receptor (PBR): PDSP, HCl salts; for inhibition at 10 µM: read-out: Ki (nM) or % inhibition at 10 µM: Benzodiazepine receptor (PBR)
Adrenergic alpha2C = biological target: T2, Adrenergic alpha2C (Homo sapiens, UniProt P18825)
T2 sequence (P18825 1-462): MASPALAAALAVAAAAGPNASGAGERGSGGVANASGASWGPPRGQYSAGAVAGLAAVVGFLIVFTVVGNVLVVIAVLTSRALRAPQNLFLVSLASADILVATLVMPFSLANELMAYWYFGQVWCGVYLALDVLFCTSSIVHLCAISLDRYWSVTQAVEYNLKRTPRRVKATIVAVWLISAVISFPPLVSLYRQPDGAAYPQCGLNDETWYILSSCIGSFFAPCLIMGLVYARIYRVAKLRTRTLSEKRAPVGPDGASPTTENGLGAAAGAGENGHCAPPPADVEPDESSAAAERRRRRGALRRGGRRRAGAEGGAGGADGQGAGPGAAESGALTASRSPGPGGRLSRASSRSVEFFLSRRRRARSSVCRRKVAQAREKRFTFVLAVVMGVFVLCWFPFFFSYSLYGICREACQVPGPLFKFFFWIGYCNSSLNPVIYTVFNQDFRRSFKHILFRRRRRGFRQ

Histamine H3 = Histamine H3 (Homo sapiens, UniProt Q9Y5N1); conditions: for inhibition at 10 µM: read-out: Ki (nM) or % inhibition at 10 µM: H3
Histamine H2 = Histamine H2 (Homo sapiens, UniProt P25021); conditions: for inhibition at 10 µM: read-out: Ki (nM) or % inhibition at 10 µM: H2
Adrenergic alpha2B = biological target: T3, Adrenergic alpha2B (Homo sapiens, UniProt P18089)
T3 sequence (P18089 1-450): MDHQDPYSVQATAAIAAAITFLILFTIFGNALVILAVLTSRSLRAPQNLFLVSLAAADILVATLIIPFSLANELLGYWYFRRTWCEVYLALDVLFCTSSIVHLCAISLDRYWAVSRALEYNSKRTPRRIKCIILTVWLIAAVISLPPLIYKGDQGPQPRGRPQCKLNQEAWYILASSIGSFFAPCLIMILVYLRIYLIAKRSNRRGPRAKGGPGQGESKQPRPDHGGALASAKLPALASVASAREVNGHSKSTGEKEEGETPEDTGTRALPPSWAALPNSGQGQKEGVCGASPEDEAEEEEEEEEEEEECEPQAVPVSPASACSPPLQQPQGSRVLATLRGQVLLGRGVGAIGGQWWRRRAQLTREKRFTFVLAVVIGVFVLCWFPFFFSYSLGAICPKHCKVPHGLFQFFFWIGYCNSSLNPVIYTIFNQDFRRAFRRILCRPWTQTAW

Serotonin 5-HT6 = Serotonin 5-HT6 (Homo sapiens, UniProt P50406)
GABAA = conditions: HCl salts
Adrenergic alpha2A = biological target: T4, Adrenergic alpha2A (Homo sapiens, UniProt P08913)
T4 sequence (P08913 1-465): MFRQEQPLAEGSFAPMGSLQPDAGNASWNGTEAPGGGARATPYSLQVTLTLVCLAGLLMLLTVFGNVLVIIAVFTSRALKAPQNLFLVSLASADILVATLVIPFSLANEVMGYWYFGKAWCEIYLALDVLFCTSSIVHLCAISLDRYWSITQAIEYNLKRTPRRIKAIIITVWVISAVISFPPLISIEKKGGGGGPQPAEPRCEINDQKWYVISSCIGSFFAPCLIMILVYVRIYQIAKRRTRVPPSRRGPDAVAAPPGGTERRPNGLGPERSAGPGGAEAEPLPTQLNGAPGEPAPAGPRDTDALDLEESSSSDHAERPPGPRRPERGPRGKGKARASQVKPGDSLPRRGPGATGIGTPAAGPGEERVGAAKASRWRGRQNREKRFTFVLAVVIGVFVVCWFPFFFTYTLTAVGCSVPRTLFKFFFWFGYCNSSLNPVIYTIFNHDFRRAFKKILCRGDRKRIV

[2] = biological target: Dopamine active transporter (DAT) (Homo sapiens, UniProt Q01959)
Chain of Dopamine active transporter (DAT) (Q01959 whole entry, species assumed): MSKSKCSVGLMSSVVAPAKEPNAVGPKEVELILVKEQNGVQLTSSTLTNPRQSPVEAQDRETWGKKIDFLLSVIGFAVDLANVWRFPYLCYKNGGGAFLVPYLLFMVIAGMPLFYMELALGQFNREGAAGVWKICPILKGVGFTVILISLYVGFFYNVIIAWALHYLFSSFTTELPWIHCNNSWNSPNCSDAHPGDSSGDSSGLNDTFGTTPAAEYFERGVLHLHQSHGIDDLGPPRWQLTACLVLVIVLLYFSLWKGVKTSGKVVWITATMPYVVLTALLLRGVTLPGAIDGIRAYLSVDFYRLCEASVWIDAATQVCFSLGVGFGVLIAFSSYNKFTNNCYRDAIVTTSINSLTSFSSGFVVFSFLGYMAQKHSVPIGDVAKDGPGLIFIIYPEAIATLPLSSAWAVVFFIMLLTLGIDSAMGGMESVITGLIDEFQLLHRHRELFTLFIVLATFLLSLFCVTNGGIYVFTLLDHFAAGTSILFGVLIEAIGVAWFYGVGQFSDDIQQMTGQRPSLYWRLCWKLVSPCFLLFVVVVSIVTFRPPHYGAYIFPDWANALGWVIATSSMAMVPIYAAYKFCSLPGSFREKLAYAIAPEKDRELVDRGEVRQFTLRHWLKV

Chain of Histamine H2 (P25021 whole entry): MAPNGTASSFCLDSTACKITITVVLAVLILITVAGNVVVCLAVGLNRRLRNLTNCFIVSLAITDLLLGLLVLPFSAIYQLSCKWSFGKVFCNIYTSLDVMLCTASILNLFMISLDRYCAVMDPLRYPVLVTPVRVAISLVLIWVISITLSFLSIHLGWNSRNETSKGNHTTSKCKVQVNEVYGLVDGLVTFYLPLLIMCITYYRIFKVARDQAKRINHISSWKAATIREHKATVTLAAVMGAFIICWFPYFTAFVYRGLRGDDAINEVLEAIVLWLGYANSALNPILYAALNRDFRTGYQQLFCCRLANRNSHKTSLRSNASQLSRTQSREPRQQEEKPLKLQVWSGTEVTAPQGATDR
Chain of Adrenergic beta2 (P07550 whole entry): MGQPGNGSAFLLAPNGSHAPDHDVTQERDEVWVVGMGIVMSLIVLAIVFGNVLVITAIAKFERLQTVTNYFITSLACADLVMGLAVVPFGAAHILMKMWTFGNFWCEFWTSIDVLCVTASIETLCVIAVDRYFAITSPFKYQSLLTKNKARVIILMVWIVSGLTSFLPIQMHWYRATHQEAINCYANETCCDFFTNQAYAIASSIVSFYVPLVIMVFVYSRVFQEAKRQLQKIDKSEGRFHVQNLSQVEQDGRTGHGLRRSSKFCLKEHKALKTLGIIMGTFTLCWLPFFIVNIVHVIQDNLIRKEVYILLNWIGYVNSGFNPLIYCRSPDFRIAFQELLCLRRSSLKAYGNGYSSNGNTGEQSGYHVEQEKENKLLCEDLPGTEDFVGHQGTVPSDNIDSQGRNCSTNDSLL
Chain of Histamine H3 (Q9Y5N1 whole entry): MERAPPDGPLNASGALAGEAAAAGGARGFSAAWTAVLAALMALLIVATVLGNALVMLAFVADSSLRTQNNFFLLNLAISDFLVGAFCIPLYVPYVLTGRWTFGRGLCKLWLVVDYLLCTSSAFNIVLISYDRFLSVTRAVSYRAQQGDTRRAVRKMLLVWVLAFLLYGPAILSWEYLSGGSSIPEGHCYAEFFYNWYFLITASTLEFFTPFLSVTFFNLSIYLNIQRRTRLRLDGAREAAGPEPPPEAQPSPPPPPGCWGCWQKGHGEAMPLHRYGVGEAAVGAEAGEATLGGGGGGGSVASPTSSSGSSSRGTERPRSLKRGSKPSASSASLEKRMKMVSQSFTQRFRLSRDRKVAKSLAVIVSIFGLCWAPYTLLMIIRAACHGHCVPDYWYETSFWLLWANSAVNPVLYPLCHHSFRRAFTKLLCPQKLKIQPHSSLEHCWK
Chain of Serotonin 5-HT6 (P50406 whole entry): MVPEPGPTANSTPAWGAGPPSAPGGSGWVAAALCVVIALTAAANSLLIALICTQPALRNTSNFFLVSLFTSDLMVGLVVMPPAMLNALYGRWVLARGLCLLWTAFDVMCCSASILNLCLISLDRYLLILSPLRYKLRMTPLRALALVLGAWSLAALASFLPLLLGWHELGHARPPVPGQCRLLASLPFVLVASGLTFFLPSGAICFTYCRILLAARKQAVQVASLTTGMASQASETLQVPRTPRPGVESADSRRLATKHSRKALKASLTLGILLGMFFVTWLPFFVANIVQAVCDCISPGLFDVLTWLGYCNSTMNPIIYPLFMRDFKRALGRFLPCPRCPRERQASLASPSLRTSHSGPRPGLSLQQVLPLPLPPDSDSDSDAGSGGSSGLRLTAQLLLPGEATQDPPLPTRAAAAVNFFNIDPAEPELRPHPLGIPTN
Chain of Adrenergic beta3 (P13945 whole entry): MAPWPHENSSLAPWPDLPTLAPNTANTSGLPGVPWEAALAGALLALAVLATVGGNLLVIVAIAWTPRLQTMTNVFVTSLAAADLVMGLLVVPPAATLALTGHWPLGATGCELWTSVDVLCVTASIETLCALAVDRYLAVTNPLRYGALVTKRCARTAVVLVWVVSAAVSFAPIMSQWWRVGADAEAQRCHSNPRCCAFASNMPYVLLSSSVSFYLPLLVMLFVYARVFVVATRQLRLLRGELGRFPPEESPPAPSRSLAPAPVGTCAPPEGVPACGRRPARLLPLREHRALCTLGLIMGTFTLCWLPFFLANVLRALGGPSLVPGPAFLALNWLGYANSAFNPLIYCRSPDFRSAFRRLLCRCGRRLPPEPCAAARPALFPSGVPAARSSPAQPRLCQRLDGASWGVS

## CCN(CCCNC(=O)c1ccc2ccccc2c1)CCNC(=O)c1cc(Br)cc(OC)c1OC [21a, N-(3-((2-(5-Bromo-2,3-dimethoxybenzamido)ethyl)(ethyl)amino)propyl)-2-naphthamide]
Adrenergic alpha1B
  Ki: 3940 nM
Adrenergic beta3
  Ki: 4530 nM
Adrenergic beta2
  inhibition at 10 µM: < 50%
[1]
  Ki: 9 nM
  Ki (nM) or % inhibition at 10 µM: Benzodiazepine receptor (PBR): relatively high affinity
Adrenergic alpha2C
  Ki: 195 nM
Histamine H3
  inhibition at 10 µM: < 50%
Histamine H2
  Ki: 2790 nM
Adrenergic alpha2B
  Ki: 577 nM
Serotonin 5-HT6
  Ki: 730 nM
GABAA
  Ki (nM) or % inhibition at 10 µM: GABAA: N/A (N/A; not active means less than 50% inhibition that was obtained in primary binding assay at 10 µM of the compound)
Adrenergic alpha2A
  Ki: 1970 nM
[2]
  Ki: 89 nM

## CCN(CCCNC(=O)c1ccc(-c2ccsc2)cc1)CCNC(=O)c1cc(Br)cc(OC)c1OC [21g, 5-Bromo-N-(2-(ethyl(3-(4-(thiophen-3-yl)benzamido)propyl)amino)ethyl)-2,3-dimethoxybenzamide]
Adrenergic alpha1B
  Ki: 1630 nM
Adrenergic beta3
  Ki: 2960 nM
Adrenergic beta2
  Ki: 616 nM
[1]
  Ki: 6 nM
  Ki (nM) or % inhibition at 10 µM: Benzodiazepine receptor (PBR): relatively high affinity
Adrenergic alpha2C
  Ki: 78 nM
Histamine H3
  Ki: 4810 nM
Histamine H2
  Ki: 2480 nM
Adrenergic alpha2B
  Ki: 571 nM
Serotonin 5-HT6
  Ki: 363 nM
GABAA
  Ki (nM) or % inhibition at 10 µM: GABAA: N/A (N/A; not active means less than 50% inhibition that was obtained in primary binding assay at 10 µM of the compound)
Adrenergic alpha2A
  Ki: 1160 nM
[2]
  Ki: 100 nM

## CCN(CCCNC(=O)c1cn2ccccc2n1)CCNC(=O)c1cc(Br)cc(OC)c1OC [21e, N-(3-((2-(5-Bromo-2,3-dimethoxybenzamido)ethyl)(ethyl)amino)propyl)imidazo[1,2-a]pyridine-2-carboxamide]
Adrenergic alpha1B
  inhibition at 10 µM: < 50%
Adrenergic beta3
  Ki: 5560 nM
Adrenergic beta2
  inhibition at 10 µM: < 50%
[1]
  Ki: 11 nM
  Ki (nM) or % inhibition at 10 µM: Benzodiazepine receptor (PBR): relatively high affinity
Adrenergic alpha2C
  Ki: 1760 nM
Histamine H3
  inhibition at 10 µM: < 50%
Histamine H2
  inhibition at 10 µM: < 50%
Adrenergic alpha2B
  Ki: 2830 nM
Serotonin 5-HT6
  Ki: 2330 nM
GABAA
  Ki (nM) or % inhibition at 10 µM: GABAA: N/A (N/A; not active means less than 50% inhibition that was obtained in primary binding assay at 10 µM of the compound)
Adrenergic alpha2A
  Ki: 5570 nM
[2]; read-out: Ki (nM) or % inhibition at 10 µM: Dopamine active transporter (DAT)
  inhibition at 10 µM: < 50%

## CCN(CCCNC(=O)c1cc2ccccc2n1C)CCNC(=O)c1cc(Br)cc(OC)c1OC [21j, N-(3-((2-(5-Bromo-2,3-dimethoxybenzamido)ethyl)(ethyl)amino)propyl)-1-methyl-1H-indole-2-carboxamide]
Adrenergic alpha1B
  inhibition at 10 µM: < 50%
Adrenergic beta3
  Ki: 4360 nM
Adrenergic beta2
  Ki: > 10000 nM
[1]
  Ki: 8 nM
Adrenergic alpha2C
  Ki: 183 nM
Histamine H3
  inhibition at 10 µM: < 50%
Histamine H2
  Ki: 3680 nM
Adrenergic alpha2B
  Ki: 646 nM
Serotonin 5-HT6
  Ki: 1310 nM
GABAA
  Ki (nM) or % inhibition at 10 µM: GABAA: N/A (N/A; not active means less than 50% inhibition that was obtained in primary binding assay at 10 µM of the compound)
Adrenergic alpha2A
  Ki: 3110 nM
[2]
  Ki: 390 nM

## CCN(CCCNC(=O)c1ccsc1)CCNC(=O)c1cc(Br)cc(OC)c1OC [21i, N-(3-((2-(5-Bromo-2,3-dimethoxybenzamido)ethyl)(ethyl)amino)propyl)thiophen-e-3-carboxamide]
Adrenergic alpha1B
  inhibition at 10 µM: < 50%
Adrenergic beta3
  Ki: > 10000 nM
Adrenergic beta2
  inhibition at 10 µM: < 50%
[1]
  Ki (nM) or % inhibition at 10 µM: Benzodiazepine receptor (PBR): relatively high affinity
  inhibition at 10 µM: < 50%
Adrenergic alpha2C
  Ki: 1290 nM
Histamine H3
  inhibition at 10 µM: < 50%
Histamine H2
  inhibition at 10 µM: < 50%
Adrenergic alpha2B
  Ki: 2950 nM
Serotonin 5-HT6
  Ki: 2160 nM
GABAA
  Ki (nM) or % inhibition at 10 µM: GABAA: N/A (N/A; not active means less than 50% inhibition that was obtained in primary binding assay at 10 µM of the compound)
Adrenergic alpha2A
  Ki: 3340 nM
[2]
  Ki: 289 nM

## CCN(CCCNC(=O)c1ccc(-c2ccncc2)cc1)CCNC(=O)c1cc(Br)cc(OC)c1OC [21c, 5-Bromo-N-(2-(ethyl(3-(4-(pyridin-4-yl)benzamido)propyl)amino)ethyl)-2,3-dimethoxybenzamide]
Adrenergic alpha1B
  inhibition at 10 µM: < 50%
Adrenergic beta3
  inhibition at 10 µM: < 50%
Adrenergic beta2
  inhibition at 10 µM: < 50%
[1]
  inhibition at 10 µM: < 50%
Adrenergic alpha2C
  Ki: 524 nM
Histamine H3
  Ki: 4720 nM
Histamine H2
  inhibition at 10 µM: < 50%
Adrenergic alpha2B
  Ki: 909 nM
Serotonin 5-HT6
  Ki: 1860 nM
GABAA
  Ki (nM) or % inhibition at 10 µM: GABAA: N/A (N/A; not active means less than 50% inhibition that was obtained in primary binding assay at 10 µM of the compound)
Adrenergic alpha2A
  Ki: 2580 nM
[2]
  Ki: 57 nM

## CCN(CCCNC(=O)c1cc2ccccc2[nH]1)CCNC(=O)c1cc(Br)cc(OC)c1OC [21d, N-(3-((2-(5-Bromo-2,3-dimethoxybenzamido)ethyl)(ethyl)amino)propyl)-1H-indole-2-carboxamide]
Adrenergic alpha1B
  Ki: > 10000 nM
Adrenergic beta3
  inhibition at 10 µM: < 50%
Adrenergic beta2
  inhibition at 10 µM: < 50%
[1]
  Ki: 1220 nM
Adrenergic alpha2C
  Ki: 532 nM
Histamine H3
  Ki: > 10000 nM
Histamine H2
  inhibition at 10 µM: < 50%
Adrenergic alpha2B
  Ki: 386 nM
Serotonin 5-HT6
  Ki: 1630 nM
GABAA
  Ki (nM) or % inhibition at 10 µM: GABAA: N/A (N/A; not active means less than 50% inhibition that was obtained in primary binding assay at 10 µM of the compound)
Adrenergic alpha2A
  Ki: 2140 nM
[2]
  Ki: 90 nM

## CCCN(CCCNC(=O)c1ccc(-c2cccs2)cc1)CCNC(=O)c1cc(Br)cc(OC)c1OC [20a, 5-Bromo-2,3-dimethoxy-N-(2-(propyl(3-(4-(thiophen-2-yl)benzamido)propyl)amino)ethyl)benzamide]
Adrenergic alpha1B
  Ki: 1400 nM
Adrenergic beta3
  Ki: 1390 nM
Adrenergic beta2
  Ki: 5830 nM
[1]
  Ki: 9 nM
  Ki (nM) or % inhibition at 10 µM: Benzodiazepine receptor (PBR): relatively high affinity
Adrenergic alpha2C
  Ki: 113 nM
Histamine H3
  inhibition at 10 µM: < 50%
Histamine H2
  Ki: 1650 nM
Adrenergic alpha2B
  Ki: 672 nM
Serotonin 5-HT6
  Ki: 258 nM
GABAA
  Ki (nM) or % inhibition at 10 µM: GABAA: N/A (N/A; not active means less than 50% inhibition that was obtained in primary binding assay at 10 µM of the compound)
Adrenergic alpha2A
  Ki: 740 nM
[2]
  Ki: 511 nM
